Source: patent US7060692B2, “Active ingredient combinations comprising insecticidal and acaricidal properties” (priority 2000, dated 2006)

Experiments:
[1] = test system: Myzus persicae; test: Myzus test (cabbage leaves dipped); assay type: in vivo; details: single active compound, 1.6 ppm, cabbage leaves (Brassica oleracea) dipped
Method: (§1) To produce a suitable preparation of active compound, 1 part by weight of active compound is mixed with the stated amounts of solvent and emulsifier, and the concentrate is diluted with water to the desired concentrations.
Cabbage leaves (Brassica oleracea), which are heavily infested by the peach aphid (Myzus persicae) are treated by being dipped into the preparation of active compound of the desired concentration.
After the desired period of time, the kill in % is determined. 100% means that all animals have been killed; 0% means that none of the animals have been killed. The kill rates determined are calculated using Colby's formula.

[2] = test system: Aphis gossypii; test: Aphis gossypii test (cotton leaves dipped); assay type: in vivo; details: single active compound, 1.6 ppm, cotton leaves (Gossypium hirsutum) dipped
Method: as §1
Cotton leaves (Gossypium hirsutum), which are heavily infested by the cotton aphid (Aphis Gossypii) are treated by being dipped into the preparation of active compound of the desired concentration.
After the desired period of time, the kill in % is determined. 100% means that all aphids have been killed; 0% means that none of the aphids have been killed. The kill rates determined are calculated using Colby's formula.

SMILES | Kill rate in % after 6d [1] [%] | Kill rate in % after 6d [2] [%]
CC[S+]([O-])CCSP(=O)(OC)OC (centres unmarked) [oxydemeton-methyl] | 0 | 
Cc1nc(N(C)C)nc(OC(=O)N(C)C)c1C [pirimicarb] |  | 5
